From patent publication US20250360134A1, “6-6 OR 5-6 FUSED BICYCLIC COMPOUNDS COMPRISING A PYRI(MI)DINE RING USEFUL IN THE|TREATMENT OF INFECTIOUS DISEASES” (INSTITUT NATIONAL DE LA SANTE ET DE LA RECHERCHE MEDICALE …, priority 2020, published 2025)
Structures can show the parent of a compound that is named as a salt. Where two headings read alike, the source gives them in different places.

Tests used:
[1] = test system: Plasmodium falciparum W2; test: In vitro antiplasmodial activity, SYBR Green I, strain W2
Procedure: (§1) The in vitro antiplasmodial activities were tested over concentrations ranging from 39 to 40 μm against culture-adapted Plasmodium falciparum: reference strains 3D7 and W2. […] The parasites were cultivated in RPMI medium (Sigma-Aldrich, Lyon, France) supplemented with 0.5% Albumax I (Life Technologies Corporation, Paisley, UK), hypoxanthine (Sigma-Aldrich), and gentamicin (Sigma-Aldrich) with human erythrocytes and were incubated at 37° C. in a candle jar, as described in Desjardins R E et al., Antimicrob Agents Chemother, 1979; 16:710-18.
(§2) The P. falciparum drug susceptibility test was carried out in 96-well flat bottom sterile plates in a final volume of 250 μL. After a 48-hour incubation with the drugs, quantities of DNA in treated and control cultures of parasites in human erythrocytes were quantified using the SYBR Green I (Sigma-Aldrich) fluorescence-based method as described in Bennett T N et al, Antimicrob Agents Chemother, 2004; 48:1807-10. Briefly, after incubation, plates were frozen at −20° C. until use. Plates were then thawed for 2 hours at room temperature, and 100 μL of each homogenized culture was transferred to a well of a 96-well flat bottom sterile black plate (Nunc, Inc., Rochester, NY) that contained 100 μL of the SYBR Green I lysis buffer (2×SYBR Green, 20 mM Tris base pH 7.5, 5 mM EDTA, 0.008% w/v saponin, 0.08% w/v Triton X-100). […] Plates were incubated for 1 hour at room temperature and then read on a fluorescence plate reader (Tecan, Grödig, Austria) using excitation and emission wavelengths of 485 and 535 nm, respectively. Concentrations inhibiting 50% of the parasite's growth (half maximal inhibitory concentration or IC50 values) were then calculated from the obtained experimental results by non-linear regression analysis of data from dose-response curves, using TableCurve 2D version 5.0 software (Systat Software, San Jose, CA). IC50 values are reported as means calculated from three independent experiments, as described in H. Kaddouri et al., Antimicrob.

[2] = test system: Plasmodium falciparum 3D7; test: In vitro antiplasmodial activity, SYBR Green I, strain 3D7
Procedure: as §1, §2

[3] = test system: Plasmodium telomeric sequence FPf1T; test: FRET-melting, FPf1T; conditions: K+ condition, 2 μM compound, 0.2 μM oligonucleotide
[4] = test system: human duplex sequence FdxT; test: FRET-melting, FdxT; conditions: duplex control, K+ condition, 2 μM compound, 0.2 μM oligonucleotide
[5] = test system: Plasmodium telomeric sequence FPf8T; test: FRET-melting, FPf8T; conditions: K+ condition, 2 μM compound, 0.2 μM oligonucleotide
[6] = test system: human telomeric sequence F21T; test: FRET-melting, F21T; conditions: K+ condition, 2 μM compound, 0.2 μM oligonucleotide
[7] = test system: Trypanosoma 9 and 11 chromosomic sequence FTrypBT; test: FRET-melting, FTrypBT; conditions: K+ condition, 2 μM compound, 0.2 μM oligonucleotide
[8] = test system: T. brucei brucei AnTat 1.9; test: In vitro antitrypanosomal activity, Alamar Blue assay; type: cell-based, Trypanosoma brucei brucei; conditions: Trypanosoma brucei, read-out: IC50 T. brucei brucei
Procedure: The effects of the tested compounds on the growth of T. brucei brucei were assessed using an Alamar Blue® assay described in B. Raz et al., Acta Trop. 1997, 68, 139. T. brucei brucei AnTat 1.9 (IMTA, Antwerpen, Belgium) was cultured in MEM with Earle's salts, supplemented according to the protocol disclosed in T. Baltz et al., EMBO J. 1985, 4, 1273, with the following modifications: 0.5 mM mercaptoethanol (Sigma-Aldrich), 1.5 mM 1-cysteine (Sigma-Aldrich), 0.05 mM bathocuproine sulfate (Sigma-Aldrich), and 20% heat-inactivated horse serum (Gibco, France) at 37° C. and 5% CO2. Samples were incubated at an average density of 2000 parasites/well in sterile 96-well plates (Fisher, France) with various concentrations of compounds dissolved in 0.9% NaCl. All doses were tested in duplicate. Appropriate controls treated with solvents 0.9% NaCl or DMSO or with suramin, pentamidine, eflornithine, and fexinidazole (reference drugs purchased from Sigma-Aldrich and Fluorochem, UK) were added to each set of experiments. After a 69-hour incubation at 37° C., 10 μl of the viability marker Alamar Blue (Fisher) was added to each well, and the plates were incubated for 5 hour. The plates were read in a PerkinElmer ENSPIRE (Germany) microplate reader using an excitation wavelength of 530 nm and an emission wavelength of 590 nm. The IC50 was defined as the concentration of drug necessary to inhibit by 50% the activity of T. brucei brucei compared to the control. IC50 values were calculated using a non-linear regression analysis of dose-response curves performed using GraphPad Prism software (USA). IC50 values were calculated from three independent experiments.

[9] = Plasmodium falciparum, W2, 48 h, read-out: IC50 Plasmodium falciparum W2, chloroquine-resistant strain W2, 48-hour incubation
[10] = Plasmodium falciparum, 3D7, 48 h, read-out: IC50 Plasmodium falciparum 3D7, chloroquine-sensitive strain 3D7, 48-hour incubation
[11] = read-out: IC50 Plasmodium falciparum W2, chloroquine-resistant strain W2, 48-hour incubation
[12] = read-out: IC50 Plasmodium falciparum 3D7, chloroquine-sensitive strain 3D7, 48-hour incubation
[13] = 69-hour incubation, Alamar Blue
[14] = read-out: IC50 Plasmodium falciparum 3D7, chloroquine-sensitive strain 3D7, 48-hour incubation, oxalate

| SMILES | IC50 [1, 9] [µM] | IC50 [2, 10] [µM] | FRET-melting values in K+ conditions at 2 μM ΔTm FPf1T [3] [°C] | FRET-melting values in K+ conditions at 2 μM ΔTm FdxT [4] [°C] | FRET-melting values in K+ conditions at 2 μM ΔTm FPf8T [5] [°C] | FRET-melting values in K+ conditions at 2 μM ΔTm F21T [6] [°C] | FRET-melting values in K+ conditions at 2 μM ΔTm FtryBT [7] | also measured |
| --- | --- | --- | --- | --- | --- | --- | --- | --- |
| CN(C)CCCNCc1ccc(-c2nc(-c3ccc(CNCCCN(C)C)cc3)c3cnn(-c4ccccc4)c3n2)cc1 [Compound 36B, 4,6-Bis{4-[(3-dimethylaminopropyl)aminomethyl]phenyl}-1-phenyl-1H-pyrazolo[3,4-d]pyrimidine oxalate] | 0.93 ± 0.15 | 2.51 ± 0.25 | – | – | – | – | – | – |
| CN(C)CCCCNCc1ccc(-c2nc(-c3ccc(CNCCCCN(C)C)cc3)c3ncn(-c4ccccc4)c3n2)cc1 [Compound 40B, 2,4-Bis{4-[(4-dimethylaminobutyl)aminomethyl]phenyl}-7-phenyl-7H-imidazo[4,5-d]pyrimidine oxalate] | 1.77 ± 0.09 | 4.74 ± 0.9 | 35.1 | 8.51 | 33.9 | 31.68 | 30.3 °C | – |
| CN1CCN(CCCCNCc2ccc(-c3nc(-c4ccc(CNCCCCN5CCN(C)CC5)cc4)c4cnn(-c5ccccc5)c4n3)cc2)CC1 [Compound 42B] | – | – | 33.2 | 6.8 | 32.1 | 30.2 | 30. ° C. | IC50 [1, 11]: 2.37 ± 0.13 µM; IC50 [2, 12]: 0.7 ± 0.15 µM |
| CN(C)CCCNCc1ccc(-c2nc(Cl)nc3c2ncn3-c2ccccc2)cc1 [Compound 43B, 2-Chloro-4-{4-[(3-dimethylaminopropyl)aminomethyl]phenyl}-7-phenyl-7H-imidazo[4,5-d]pyrimidine oxalate] | 0.83 ± 0.17 | 1.53 ± 0.39 | 2.4 | 0.04 | 3.3 | 1.7 | 2.7 °C | – |
| CN(C)CCCNCc1ccc(-c2nc3c(c(-c4ccc(CNCCCN(C)C)cc4)n2)CCNC3)cc1 [Compound 25B, 2,4-Bis{4-[(3-dimethylaminopropyl)aminomethyl]phenyl})-5,6,7,8-dihydropyrido[3,4-d]pyrimidine oxalate] | 2.23 ± 0.23 | 0.79 ± 0.12 | 10.7 | −0.9 | 11.1 | 12.3 | 8.0 °C | IC50 [8, 13]: 2.43 ± 0.1 µM |
| CN1CCN(CCCNCc2ccc(-n3ccc4c(-c5ccccc5)nc(Cl)nc43)cc2)CC1 [Compound 23B, 2-Chloro-7-(4-[(3-(4-methylpiperazin-1-yl)propyl)aminomethyl]phenyl)-4-phenyl-7H-pyrrolo[2,3-d]pyrimidine oxalate] | 9.14 | 0.38 ± 0.25 | – | – | – | – | – | – |
| CN(C)CCCNCc1ccc(-n2ccc3c(-c4ccccc4)nc(Cl)nc32)cc1 [Compound 22B, 2-Chloro-7-(4-[(3-dimethylaminopropyl)aminomethyl]phenyl)-4-phenyl-7H-pyrrolo[2,3-d]pyrimidine oxalate] | 0.73 ± 0.22 | 0.8 ± 0.41 | – | – | – | – | – | IC50 ([8]; 69 h): 0.03 µM |
| CN(C)CCCNCc1ccc(-n2ccc3c(-c4ccccc4)nc(-c4ccccc4)nc32)cc1 [Compound 12B, 7-(4-[(3-Dimethylaminopropyl)aminomethyl]phenyl)-2,4-diphenyl-7H-pyrrolo[2,3-d]pyrimidine oxalate] | 9.14 | 0.38 ± 0.25 | – | – | – | – | – | – |
| CN(C)CCCCNCc1ccc(-c2nc(-c3ccc(CNCCCCN(C)C)cc3)c3cnn(-c4ccccc4)c3n2)cc1 [Compound 37B, 4,6-Bis{4-[(4-dimethylaminobutyl)aminomethyl]phenyl}-1-phenyl-1H-pyrazolo[3,4-d]pyrimidine] | 1.18 ± 0.12 | – | – | – | – | – | – | – |
| COC(=O)C(N)CCCCNCc1ccc(-c2nc(-c3ccc(CNCCCCC(N)C(=O)OC)cc3)c3ccn(C)c3n2)cc1 (centres unmarked) [Compound 11B, 2,4-Bis{4-[(5-amino-5-(methoxycarbonyl)pentyl)aminomethyl]phenyl}-7-methyl-7H-pyrrolo[2,3-d]pyrimidine oxalate] | 0.07 ± 0.01 | > 40 | – | – | – | – | – | IC50 [8, 13]: 5.04 ± 0.73 µM |
| CN1CCN(CCCNCc2ccc(-c3nc(Cl)nc4c3ccn4-c3ccccc3)cc2)CC1 [Compound 18B, 2-chloro-4-{4-[(3-(4-methylpiperazin-1-yl)propyl)aminomethyl]phenyl}-7-phenyl-7H-pyrrolo[2,3-d]pyrimidine oxalate] | 6.96 ± 0.65 | 0.68 ± 0.13 | – | – | – | – | – | IC50 ([8]; 69 h): 0.06 µM |
| CN(C)CCCNCc1ccc(-c2cc(Cl)nc3c2ccn3-c2ccccc2)cc1 [Compound 47B, 6-Chloro-4-{4-[(3-dimethylaminopropyl)aminomethyl]phenyl}-1-phenyl-1H-pyrrolo[2,3-b]pyridine oxalate] | 0.72 ± 0.3 | 0.15 ± 0.02 | 3.3 | −0.2 | 4.0 | 2.8 | 4.3 °C | – |
| CN(C)CCCNCc1cc(-c2nc(Cl)nc3c2ccn3-c2ccccc2)cs1 [Compound 20B, 2-Chloro-4-{2-[(3-dimethylaminopropyl)aminomethyl]thien-4-yl}-7-phenyl-7H-pyrrolo[2,3-d]pyrimidine oxalate] | 13.6 ± 0.43 | 0.59 ± 0.17 | – | – | – | – | – | IC50 ([8]; 69 h): 0.08 µM |
| CN(C)CCCCCNCc1ccc(-c2nc(-c3ccc(CNCCCCCN(C)C)cc3)c3cnn(-c4ccccc4)c3n2)cc1 [Compound 38B, 4,6-Bis{4-[(5-dimethylaminopentyl)aminomethyl]phenyl}-1-phenyl-1H-pyrazolo[3,4-d]pyrimidine oxalate] | – | – | – | – | – | – | – | IC50 ([1]; read-out: IC50 Plasmodium falciparum W2, chloroquine-resistant strain W2, 48-hour incubation, oxalate): 4.73 ± 0.28 µM; IC50 [2, 14]: 0.35 ± 0.09 µM |
| CN(C)CCCNCc1ccc(-c2nc3c(c(-c4ccc(CNCCCN(C)C)cc4)n2)CCN(C(=O)OC(C)(C)C)C3)cc1 [Compound 24B, Tert-butyl 2,4-bis{4-[(3-dimethylaminopropyl)aminomethyl]phenyl})-5,6-dihydropyrido[3,4-d]pyrimidine-7(8H)-carboxylate oxalate] | 0.18 ± 0.04 | 1.63 ± 0.25 | 9.1 | −0.7 | 11.6 | 10.3 | 7.6 °C | IC50 [8, 13]: 0.78 ± 0.06 µM |
| CN(C)CCCCCNCc1ccc(-c2nc(-c3ccc(CNCCCCCN(C)C)cc3)c3cnn(-c4ccccc4)c3n2)cc1 [Compound 41B] | – | – | 36.4 | 9.7 | 34.9 | 34.0 | 33.0 °C | IC50 [1, 11]: 1.99 ± 0.12 µM; IC50 [2, 12]: 1.99 ± 0.9 µM |
| CN1CCN(CCCCNCc2ccc(-c3nc(-c4ccc(CNCCCCN5CCN(C)CC5)cc4)c4cnn(-c5ccccc5)c4n3)cc2)CC1 [Compound 39B, 4,6-Bis{4-[(4-(4-methylpiperazin-1-yl)butyl)aminomethyl]phenyl}-1-phenyl-1H-pyrazolo[3,4-d]pyrimidine oxalate] | 1.53 ± 0.09 | – | – | – | – | – | – | IC50 [2, 14]: 1.83 ± 0.47 µM |
